Data from patent publication US20240299385A1 (ReWind Therapeutics NV, priority 2021, published 2024).

Target: T1, human GPR17 receptor (Homo sapiens, UniProt Q13304)
T1 construct: host or cells: HEK-293
Assay: Calcium mobilization functional assay (Fluo-8, FLIPR TETRA) in HEK-293 hGPR17 (Gα-q assay)
Assay type: cell-based
Details: antagonism of MDL29,951 (~EC80) induced Ca2+ signal; cell line (HEK-293 hGPR17 or HEK-293 Suchi5 hGPR17) not given
Method in brief: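 Fluo-8-loaded HEK-293 hGPR17 cells (60 min dye loading, room temperature) were preincubated with compound for twenty minutes, then challenged with agonist MDL29,951 at ~EC80, 500 nM. Intracellular calcium release via Gα-q was recorded as FLIPR fluorescence for a further 2 minutes; compounds tested in duplicate.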

T1 sequence (Q13304 whole entry): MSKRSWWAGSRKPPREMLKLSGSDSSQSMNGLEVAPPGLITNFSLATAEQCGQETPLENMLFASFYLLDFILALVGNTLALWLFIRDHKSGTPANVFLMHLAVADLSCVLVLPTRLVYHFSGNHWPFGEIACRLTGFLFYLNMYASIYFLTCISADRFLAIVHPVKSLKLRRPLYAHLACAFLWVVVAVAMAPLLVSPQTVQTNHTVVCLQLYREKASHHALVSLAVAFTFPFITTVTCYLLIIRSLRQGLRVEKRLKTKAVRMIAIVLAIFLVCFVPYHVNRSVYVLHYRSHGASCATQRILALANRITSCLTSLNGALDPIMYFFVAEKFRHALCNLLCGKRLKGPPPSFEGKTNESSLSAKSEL

Compound	IC50 [µM]
O=S(=O)(Nc1cc(C(F)(F)F)ccn1)c1c[nH]c(-c2ccccc2)c1 [Cpd 139, 5-phenyl-N-[4-(trifluoromethyl)-2-pyridyl]-1H-pyrrole-3-sulfonamide]	0.5 to 5
O=S(=O)(Nc1ncc(C(F)(F)F)cc1F)c1c[nH]c(-c2ccccc2)c1 [Cpd 140, N-[3-fluoro-5-(trifluoromethyl)-2-pyridyl]-5-phenyl-1H-pyrrole-3-sulfonamide]	0.5 to 5
O=S(=O)(Nc1cccc2c1OC(F)(F)O2)c1c[nH]c(-c2ccccc2)c1 [Cpd 141, N-(2,2-difluoro-1,3-benzodioxol-4-yl)-5-phenyl-1H-pyrrole-3-sulfonamide]	0.5 to 5
O=S(=O)(Nc1cnc(Cl)cc1F)c1c[nH]c(-c2ccccc2F)c1 [Cpd 142, N-(6-chloro-4-fluoro-3-pyridyl)-5-(2-fluorophenyl)-1H-pyrrole-3-sulfonamide]	0.5 to 5
O=S(=O)(Nc1ccc(OC(F)(F)F)cc1F)c1c[nH]c(-c2ccccc2)c1 [Cpd 143, N-[2-fluoro-4-(trifluoromethoxy)phenyl]-5-phenyl-1H-pyrrole-3-sulfonamide]	0.5 to 5
COc1cc(C(F)(F)F)ccc1NS(=O)(=O)c1c[nH]c(-c2ccccc2)c1 [Cpd 144, N-[2-methoxy-4-(trifluoromethyl)phenyl]-5-phenyl-1H-pyrrole-3-sulfonamide]	5 to 50
O=S(=O)(Nc1cc(F)c(Cl)cc1F)c1c[nH]c(-c2ccccc2)c1 [Cpd 145, N-(4-chloro-2,5-difluoro-phenyl)-5-phenyl-1H-pyrrole-3-sulfonamide]	0.5 to 5
O=S(=O)(Nc1cc(Cl)ncc1F)c1c[nH]c(-c2ccccc2)c1 [Cpd 146, N-(2-chloro-5-fluoro-4-pyridyl)-5-phenyl-1H-pyrrole-3-sulfonamide]	5 to 50
COc1nc(C(F)(F)F)ccc1NS(=O)(=O)c1c[nH]c(-c2ccccc2)c1 [Cpd 147, N-[2-methoxy-6-(trifluoromethyl)-3-pyridyl]-5-phenyl-1H-pyrrole-3-sulfonamide]	0.5 to 5
O=S(=O)(Nc1cc(F)c(C(F)(F)F)cc1F)c1c[nH]c(-c2ncccc2F)c1 [Cpd 148, N-(2,5-difluoro-4-(trifluoromethyl)phenyl)-5-(3-fluoropyridin-2-yl)-1H-pyrrole-3-sulfonamide]	< 0.5
O=S(=O)(Nc1cccc2c1OCO2)c1c[nH]c(-c2ccccn2)c1 [Cpd 149, N-(1,3-benzodioxol-4-yl)-5-(2-pyridyl)-1H-pyrrole-3-sulfonamide]	0.5 to 5
O=S(=O)(Nc1cc(F)c(C(F)(F)F)cc1F)c1c[nH]c(-c2ncccn2)c1 [Cpd 150, N-[2,5-difluoro-4-(trifluoromethyl)phenyl]-5-pyrimidin-2-yl-1H-pyrrole-3-sulfonamide]	0.5 to 5
O=S(=O)(Nc1ccc(F)cc1F)c1c[nH]cc1Cc1ccccc1 [Cpd 151, 4-benzyl-N-(2,4-difluorophenyl)-1H-pyrrole-3-sulfonamide]	5 to 50
O=S(=O)(Nc1ccc(C(F)(F)F)nc1)c1c[nH]cc1Cc1ccccc1 [Cpd 152, 4-benzyl-N-[6-(trifluoromethyl)-3-pyridyl]-1H-pyrrole-3-sulfonamide]	5 to 50
O=S(=O)(Nc1ccc(Cl)cc1F)c1c[nH]cc1Cc1ccccc1 [Cpd 153, 4-benzyl-N-(4-chloro-2-fluoro-phenyl)-1H-pyrrole-3-sulfonamide]	5 to 50
COc1cc(C(F)(F)F)ccc1NS(=O)(=O)c1c[nH]c(-c2ccccn2)c1 [Cpd 154, N-[2-methoxy-4-(trifluoromethyl)phenyl]-5-(2-pyridyl)-1H-pyrrole-3-sulfonamide]	0.5 to 5
Cc1cccnc1-c1cc(S(=O)(=O)Nc2cc(F)c(C(F)(F)F)cc2F)c[nH]1 [Cpd 155, N-[2,5-difluoro-4-(trifluoromethyl)phenyl]-5-(3-methyl-2-pyridyl)-1H-pyrrole-3-sulfonamide]	< 0.5
Cn1ccnc1-c1cc(S(=O)(=O)Nc2cc(F)c(C(F)(F)F)cc2F)c[nH]1 [Cpd 156, N-[2,5-difluoro-4-(trifluoromethyl)phenyl]-5-(1-methylimidazol-2-yl)-1H-pyrrole-3-sulfonamide]	0.5 to 5
O=S(=O)(Nc1ccc(OC(F)(F)F)cc1F)c1c[nH]c(-c2ccccn2)c1 [Cpd 157, N-[2-fluoro-4-(trifluoromethoxy)phenyl]-5-(2-pyridyl)-1H-pyrrole-3-sulfonamide]	0.5 to 5
O=S(=O)(Nc1cc(F)c(C(F)(F)F)cc1F)c1c[nH]cc1Cc1ccccc1 [Cpd 158, 4-benzyl-N-[2,5-difluoro-4-(trifluoromethyl)phenyl]-1H-pyrrole-3-sulfonamide]	0.5 to 5
O=S(=O)(Nc1ccc(F)cc1F)c1c[nH]c(-c2ncccc2F)c1 [Cpd 160, N-(2,4-difluorophenyl)-5-(3-fluoro-2-pyridyl)-1H-pyrrole-3-sulfonamide]	5 to 50
COc1cc(C#N)ccc1NS(=O)(=O)c1c[nH]cc1Cc1ccccc1 [Cpd 161, 4-benzyl-N-(4-cyano-2-methoxy-phenyl)-1H-pyrrole-3-sulfonamide]	5 to 50

Compound	IC50 [µM]
N#Cc1ccc(NS(=O)(=O)c2c[nH]cc2Cc2ccccc2)cc1 [Cpd 162, 4-benzyl-N-(4-cyanophenyl)-1H-pyrrole-3-sulfonamide]	0.5 to 5
O=S(=O)(Nc1ccccc1F)c1c[nH]cc1Cc1ccccc1 [Cpd 163, 4-benzyl-N-(2-fluorophenyl)-1H-pyrrole-3-sulfonamide]	5 to 50
O=S(=O)(Nc1ncc(Cl)cc1F)c1c[nH]c(-c2ccccn2)c1 [Cpd 164, N-(5-chloro-3-fluoro-2-pyridyl)-5-(2-pyridyl)-1H-pyrrole-3-sulfonamide]	0.5 to 5
COc1cc(CC#N)ccc1NS(=O)(=O)c1c[nH]c(-c2ccccc2)c1 [Cpd 165, N-[4-(cyanomethyl)-2-methoxy-phenyl]-5-phenyl-1H-pyrrole-3-sulfonamide]	0.5 to 5
N#Cc1cnc(NS(=O)(=O)c2c[nH]c(-c3ccccc3)c2)c(F)c1 [Cpd 166, N-(5-cyano-3-fluoro-2-pyridyl)-5-phenyl-1H-pyrrole-3-sulfonamide]	0.5 to 5
COc1cc(Br)cnc1NS(=O)(=O)c1c[nH]c(-c2ccccn2)c1 [Cpd 167, N-(5-bromo-3-methoxy-2-pyridyl)-5-(2-pyridyl)-1H-pyrrole-3-sulfonamide]	0.5 to 5
O=S(=O)(Nc1ncc(Br)cc1F)c1c[nH]c(-c2ccccc2)c1 [Cpd 168, N-(5-bromo-3-fluoro-2-pyridyl)-5-phenyl-1H-pyrrole-3-sulfonamide]	0.5 to 5
N#CCc1cnc(NS(=O)(=O)c2c[nH]c(-c3ccccc3)c2)c(F)c1 [Cpd 169, N-[5-(cyanomethyl)-3-fluoro-2-pyridyl]-5-phenyl-1H-pyrrole-3-sulfonamide]	5 to 50
COc1cccnc1-c1cc(S(=O)(=O)Nc2cc(F)c(C(F)(F)F)cc2F)c[nH]1 [Cpd 170, N-[2,5-difluoro-4-(trifluoromethyl)phenyl]-5-(3-methoxy-2-pyridyl)-1H-pyrrole-3-sulfonamide]	0.5 to 5
N#Cc1ccc(NS(=O)(=O)c2c[nH]cc2Cc2cccc(F)c2)c(F)c1 [Cpd 171, N-(4-cyano-2-fluoro-phenyl)-4-[(3-fluorophenyl)methyl]-1H-pyrrole-3-sulfonamide]	< 0.5
Cc1cc(F)c(NS(=O)(=O)c2c[nH]c(-c3ccccn3)c2)cc1F [Cpd 173, N-(2,5-difluoro-4-methyl-phenyl)-5-(2-pyridyl)-1H-pyrrole-3-sulfonamide]	< 0.5
O=S(=O)(Nc1cc(F)c(-c2ccccc2)cc1F)c1c[nH]c(-c2ccccn2)c1 [Cpd 174, N-(2,5-difluoro-4-phenyl-phenyl)-5-(2-pyridyl)-1H-pyrrole-3-sulfonamide]	5 to 50
COc1cc(C(F)(F)F)cnc1NS(=O)(=O)c1c[nH]c(-c2ccccc2)c1 [Cpd 175, N-[3-methoxy-5-(trifluoromethyl)-2-pyridyl]-5-phenyl-1H-pyrrole-3-sulfonamide]	0.5 to 5
O=S(=O)(Nc1ncc(C(F)(F)F)cc1F)c1c[nH]c(-c2ccccc2F)c1 [Cpd 176, 5-(2-fluorophenyl)-N-[3-fluoro-5-(trifluoromethyl)-2-pyridyl]-1H-pyrrole-3-sulfonamide]	0.5 to 5
N#Cc1ccc(NS(=O)(=O)c2c[nH]cc2Cc2ccc(F)cc2)c(F)c1 [Cpd 177, N-(4-cyano-2-fluoro-phenyl)-4-[(4-fluorophenyl)methyl]-1H-pyrrole-3-sulfonamide]	< 0.5
O=S(=O)(Nc1cc(F)c(F)cc1F)c1c[nH]c(-c2ccccn2)c1 [Cpd 179, 5-(2-pyridyl)-N-(2,4,5-trifluorophenyl)-1H-pyrrole-3-sulfonamide]	0.5 to 5
COc1cccc(F)c1-c1cc(S(=O)(=O)Nc2cc(F)c(C(F)(F)F)cc2F)c[nH]1 [Cpd 180, N-[2,5-difluoro-4-(trifluoromethyl)phenyl]-5-(2-fluoro-6-methoxy-phenyl)-1H-pyrrole-3-sulfonamide]	0.5 to 5
O=S(=O)(Nc1ccc(Cl)cc1F)c1c[nH]c(-c2ccccn2)c1 [Cpd 181, N-(4-chloro-2-fluoro-phenyl)-5-(2-pyridyl)-1H-pyrrole-3-sulfonamide]	0.5 to 5
N#Cc1ccc(NS(=O)(=O)c2c[nH]cc2Cc2ccccc2F)c(F)c1 [Cpd 182, N-(4-cyano-2-fluoro-phenyl)-4-[(2-fluorophenyl)methyl]-1H-pyrrole-3-sulfonamide]	0.5 to 5
COc1cc(F)c(NS(=O)(=O)c2c[nH]c(-c3ccccn3)c2)cc1F [Cpd 183, N-(2,5-difluoro-4-methoxy-phenyl)-5-(2-pyridyl)-1H-pyrrole-3-sulfonamide]	0.5 to 5
N#Cc1ccc(NS(=O)(=O)c2c[nH]cc2Cc2cccnc2)c(F)c1 [Cpd 184, N-(4-cyano-2-fluoro-phenyl)-4-(3-pyridylmethyl)-1H-pyrrole-3-sulfonamide]	0.5 to 5
C#Cc1cc(F)c(NS(=O)(=O)c2c[nH]c(-c3ccccn3)c2)cc1F [Cpd 185, N-(4-ethynyl-2,5-difluoro-phenyl)-5-(2-pyridyl)-1H-pyrrole-3-sulfonamide]	0.5 to 5
